{"source": "patent US20240158386A1", "about": "“BENZOXAZOLONE INHIBITORS OF INFLAMMASOMES” (ICAHN SCHOOL OF MEDICINE AT MOUNT SINAI, priority 2021, published 2024)", "key": {"TNF-α production": {"system": "TNF-α production", "assay": "TNF-α production in cell culture supernatant (ELISA)", "type": "cell-based, mouse", "details": "FIG. 3B", "experimental": "(§1) Cytokine quantification. IL-1β in cell supernatants and brain tissue samples—after the different treatment groups—was quantified using the Mouse IL-1 beta/IL-1F2 DuoSet ELISA kit (R&D systems), IL-6 in cell culture supernatant was measured through the Mouse IL-6 ELISA kit (ThermoFisher), TNF-α in cell culture supernatants was determined using the Mouse TNF-alpha DuoSet ELISA (R*D systems), and IL-18 in brain tissue was measured through the IL-18 Mouse ELISA Kit (Invitrogen) following the manufacturers' recommended protocol. IL-1β precursor and cleaved IL-1β in the FC of mice treated with vehicles, LPS, or C77-LPS was assessed by western blot. All samples were run in technical duplicates."}, "IL6 production": {"system": "IL6 production", "assay": "IL-6 production in cell culture supernatant (ELISA)", "type": "cell-based, mouse", "details": "FIG. 3B", "experimental": "as §1"}, "NLRP3": {"system": "NLRP3", "assay": "In-vivo assessment of C77: brain cytokines in LPS-treated mice", "design": "species or system WT C57BL/6J mice", "experimental": "as §1\n(§2) Animals used in in-vivo assessments. WT C57BL/6J mice (stock #000664) were obtained from The Jackson Laboratory. Mice were housed in groups of five animals per cage on a 12:12 hours light/dark cycle. Water and food were provided ad libitum. 8-10 weeks males were used for experiments. All procedures were approved by the Institutional Animal Care and use Committee of the Icahn School of Medicine at Mount Sinai.\nIn-vivo assessment of C77. The ability of C77 to inhibit NLRP3 in-vivo was evaluated using WT C57BL/6J mice. C77 (50 mg/kg), or the same volume of DMSO vehicle, was intraperitoneally injected 2 hours before of LPS (15 mg/kg) or vehicle (PBS) administration. 1.5 hours later, the animals were sacrificed and their brain was isolated. Cortex, frontal cortex, hippocampus, and cerebellum regions from the right hemisphere were obtained for IL-1β analysis. The left hemisphere was used for gene expression analysis. N=5 animals per group."}, "[1]": {"system": "inflammasome priming (NLRP3, caspase-1, IL-1β, TNF-α, IL6, NLRC4 expression)", "assay": "In-vivo assessment of C77: RNA expression of inflammatory genes in mouse brain", "design": "species or system WT C57BL/6J mice", "details": "50 mg/kg 2 hours before LPS administration", "experimental": "(§3) Gene expression analysis. RNA was isolated from frontal cortex from C57BL/6J mice or from THP1 human cultures using the RNeasy Mini Kit (QIAGEN, Hilden, Germany), following the recommendations of the manufacturer. RNA concentration was determined, and cDNA was synthesized using the High-Capacity cDNA Reverse Transcription Kit with RNase Inhibitor (applied biosystems™). The expression levels of inflammatory genes—NLRP3, caspase-1, IL-1β, TNF-α, NLRC4, IL-18, and IL6—were determined in 4 replicates through PowerUp SYBER Green Master Mix (Thermofisher) using an ABI PRISM […] Sequence Detection System. Hypoxanthine phosphoribosyltransferase (HPRT) was used as an internal control in samples from mouse brains, and GAPDH in the case of THP1 lysates. Gene expression levels were normalized to control samples (mice or THP1 cells treated with PBS).\nas §2\nIn-vivo assessment of C77. The ability of C77 to inhibit NLRP3 in-vivo was evaluated using WT C57BL/6J mice. […]"}, "[2]": {"target": "T1, Human recombinant NLRP3 protein (Homo sapiens, UniProt Q96P20)", "T1 construct": "purchased BPS Bioscience, San Diego CA", "T1 sequence (Q96P20 whole entry)": "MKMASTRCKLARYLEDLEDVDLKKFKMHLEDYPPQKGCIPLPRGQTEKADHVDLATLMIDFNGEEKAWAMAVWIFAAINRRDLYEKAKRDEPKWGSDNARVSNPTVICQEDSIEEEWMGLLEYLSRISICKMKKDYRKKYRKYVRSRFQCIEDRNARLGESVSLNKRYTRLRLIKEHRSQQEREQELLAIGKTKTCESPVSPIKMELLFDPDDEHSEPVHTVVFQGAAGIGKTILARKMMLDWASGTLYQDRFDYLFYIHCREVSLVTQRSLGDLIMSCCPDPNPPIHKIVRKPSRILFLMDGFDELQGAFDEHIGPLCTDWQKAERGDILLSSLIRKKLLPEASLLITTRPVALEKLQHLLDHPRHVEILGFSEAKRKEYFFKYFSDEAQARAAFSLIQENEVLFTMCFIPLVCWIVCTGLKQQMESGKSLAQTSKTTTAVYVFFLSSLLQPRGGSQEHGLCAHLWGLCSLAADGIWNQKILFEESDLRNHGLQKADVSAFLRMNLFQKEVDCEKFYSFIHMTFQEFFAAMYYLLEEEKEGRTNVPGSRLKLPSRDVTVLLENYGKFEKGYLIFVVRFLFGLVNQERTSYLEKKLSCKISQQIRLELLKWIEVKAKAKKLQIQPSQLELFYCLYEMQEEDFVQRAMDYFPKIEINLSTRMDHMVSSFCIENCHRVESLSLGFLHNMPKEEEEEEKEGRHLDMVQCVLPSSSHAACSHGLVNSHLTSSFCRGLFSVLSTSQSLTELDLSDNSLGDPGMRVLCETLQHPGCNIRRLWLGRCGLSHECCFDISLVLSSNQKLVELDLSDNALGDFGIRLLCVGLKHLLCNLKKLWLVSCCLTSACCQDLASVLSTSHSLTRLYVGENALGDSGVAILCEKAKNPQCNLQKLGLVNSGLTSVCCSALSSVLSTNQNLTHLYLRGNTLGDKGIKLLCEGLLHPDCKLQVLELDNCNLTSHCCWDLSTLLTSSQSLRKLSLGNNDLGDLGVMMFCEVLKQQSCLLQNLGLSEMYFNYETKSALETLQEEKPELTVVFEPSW", "assay": "Inhibition of the NLRP3 ATPase activity (cell-free, ADP-Glo)", "type": "biochemical", "details": "isolated protein, 10 μM ATP", "experimental": "Inhibition of the NLRP3 ATPase activity. The efficacy of C77 to inhibit ATP hydrolysis by NLRP3 was directly assayed using a cell-free assay. Human recombinant NLRP3 protein (BPS Bioscience, San Diego CA) was incubated at 37° C. with different concentrations of C77 for 20 min, as previously described (Cocco, M., et al. (2017) Development of an Acrylate Derivative Targeting the NLRP3 Inflammasome for the Treatment of Inflammatory Bowel Disease. J. Med. Chem. 60, 3656-3671). 10 μM ultrapure ATP was then added, and reaction mixtures were further incubated for 45 min. ATP conversion into ADP was determined using the ADP-Glo Kinase Assay (Promega), following the recommendations of the manufacturer, in a SpectraMax i3x Multimode Detection Platform."}, "NLRP3 inflammasome": {"target": "T2, NLRP3 inflammasome (Mus musculus, UniProt Q8R4B8)", "T2 construct": "endogenous in cells; host or cells: primary microglia from cortices of 2-3 day old WT mouse pups", "T2 sequence (Q8R4B8 whole entry)": "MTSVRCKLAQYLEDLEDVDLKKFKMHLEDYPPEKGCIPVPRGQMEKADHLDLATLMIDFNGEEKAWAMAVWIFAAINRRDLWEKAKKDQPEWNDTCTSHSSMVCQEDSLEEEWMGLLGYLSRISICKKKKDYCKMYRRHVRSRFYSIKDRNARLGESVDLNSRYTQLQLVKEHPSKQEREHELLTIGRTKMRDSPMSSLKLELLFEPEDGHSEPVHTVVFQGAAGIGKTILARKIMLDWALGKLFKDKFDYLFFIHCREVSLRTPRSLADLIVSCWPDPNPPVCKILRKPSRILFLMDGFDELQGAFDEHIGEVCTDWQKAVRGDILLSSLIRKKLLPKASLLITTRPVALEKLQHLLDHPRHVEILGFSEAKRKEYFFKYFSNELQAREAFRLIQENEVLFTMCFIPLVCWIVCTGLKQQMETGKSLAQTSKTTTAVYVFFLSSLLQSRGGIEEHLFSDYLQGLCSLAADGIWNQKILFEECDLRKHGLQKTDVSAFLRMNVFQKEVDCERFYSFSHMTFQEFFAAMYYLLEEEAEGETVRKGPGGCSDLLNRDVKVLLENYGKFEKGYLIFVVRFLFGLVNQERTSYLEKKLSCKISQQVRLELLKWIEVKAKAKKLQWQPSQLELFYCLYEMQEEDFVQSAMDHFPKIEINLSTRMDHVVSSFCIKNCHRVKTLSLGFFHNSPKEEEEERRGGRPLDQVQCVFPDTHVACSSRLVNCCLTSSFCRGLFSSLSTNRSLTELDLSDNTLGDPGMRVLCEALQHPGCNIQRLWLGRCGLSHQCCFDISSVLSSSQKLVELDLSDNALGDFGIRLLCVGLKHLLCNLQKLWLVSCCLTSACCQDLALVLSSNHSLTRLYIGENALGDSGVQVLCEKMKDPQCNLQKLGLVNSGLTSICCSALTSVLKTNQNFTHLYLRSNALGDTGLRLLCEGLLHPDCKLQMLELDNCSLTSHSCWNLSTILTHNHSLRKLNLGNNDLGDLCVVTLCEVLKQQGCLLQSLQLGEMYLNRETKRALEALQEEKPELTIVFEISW", "assay": "NLRP3 inflammasome activation assay: IL-1β release by primary microglia after LPS and ATP", "type": "cell-based, murine", "experimental": "Murine primary microglia. Mixed cortical cultures were prepared as previously described (Bronstein, R. et al. J. Vis. Exp. JoVE 50647 (2013) doi:10.3791/50647). Briefly, cortices from 2-3 days old, WT, or NLRP3 KO pups were isolated, digested, and seeded at a density of 8 cortices per 10 ml petri dish. Every three days, the medium was replaced by fresh culture medium (DMEM, 10% FBS, 1% penicillin-streptomycin). After three weeks, mixed glial cultures had reached confluence, and microglia cells were isolated by mild trypsinization as previously described (Saura, J. et al. Glia 44, 183-189 (2003)). In brief, cells were washed with culture medium without FBS and treated with a mixture of trypsin 0.25% (without EDTA) and DMEM-F12 medium in a 1:3 proportion. After an incubation period of approximately 40 min, an intact layer of mixed glial cells detached, leaving microglia attached firmly to the bottom of the Petri-dish. Pure microglia were then isolated by 15 min incubation with trypsin (0.05%)-EDTA at 37° C., followed by gentle shaking. Cells were counted and seeded at the desired density, typically 7.5·10^4 cells/well in 24 well-plates.\n(§4) NLRP3 inflammasome activation assay. Primary microglia cultures were incubated with the compounds that inhibited IL-1β production in THP1 macrophages. Cells pretreated with 100 μM of the compounds—or with the same DMSO volume, in the case of control samples—were primed with 400 ng/ml LPS for 3 hours, and activated with 4.5 mM ATP for 45 minutes or […] nigericin for 1 hour. Dose-response curves were conducted by incubating microglia cultures with different concentrations of the selected compounds, ranging from 0.001 to 100 μM, 1 hour before NLRP3 activation with LPS and ATP. Supernatants were collected for IL-1β and toxicity assessments.\nas §1"}, "[3]": {"system": "NLRP3, caspase-1, IL-1β, IL-6, IL-8, and TNF-α gene expression", "assay": "Gene expression analysis in cell cultures (FIG. 3C)", "type": "cell-based, human", "experimental": "as §3"}, "microglia cultures": {"system": "microglia cultures", "assay": "Cell viability assay (CytoTox 96 cytotoxicity)", "type": "cell-based, murine", "experimental": "as §4\nCell viability assays. The cytotoxic effect of the compounds identified by in-vitro screening was assayed with the Cyto Tox 96® NonRadioactive Cytotoxicity Assay (Promega), following the recommendations of the manufacturer."}, "[4]": {"details": "50 mg/kg IP 2 hours before 15 mg/kg LPS IP"}}, "note": "Read-outs that look alike come from different tables or passages of the source.", "data": [{"smiles": "O=C(Cn1c(=O)oc2ccccc21)NCc1cncc(-c2ccsc2)c1", "note": "[Compound C77]", "values": [{"measurement": "inhibition of TNF-α production", "setting": "TNF-α production", "result": "did not inhibit"}, {"measurement": "inhibition of IL6 production", "setting": "IL6 production", "result": "did not inhibit"}, {"measurement": "IL-1β levels in the cerebellum", "setting": "NLRP3; [4]", "result": "significantly reduced IL-1β levels"}, {"measurement": "IL-1β levels in the frontal cortex", "setting": "NLRP3; [4]", "result": "significantly reduced IL-1β levels"}, {"measurement": "IL-1β levels in the hippocampus", "setting": "NLRP3; [4]", "result": "significantly reduced IL-1β levels"}, {"measurement": "IL-18 levels in the frontal cortex", "setting": "NLRP3; [4]", "result": "significantly reduced IL-18 levels"}, {"measurement": "cleaved IL-1β versus pro IL-1β by western blot", "setting": "NLRP3; frontal cortex of mice treated with C77-LPS", "result": "reduces the cleaved form of IL-β and not pro IL-1β"}, {"measurement": "overexpression of inflammatory genes (NLRP3, IL1β, TNF-α, IL6) in mouse brain", "setting": "[1]", "result": "did not reduce the overexpression of these genes"}, {"measurement": "concentrations with statistically significant inhibition of NLRP3 ATPase activity", "setting": "[2]", "result": "≥ 10", "unit": "nM"}, {"measurement": "IC50", "setting": "[2]; nonlinear fit", "result": 0.04, "unit": "µM"}, {"measurement": "inhibition of IL-1β release upon NLRP3 activation", "setting": "NLRP3 inflammasome; 100 μM compound, microglia, LPS and ATP", "result": "inhibited NLRP3 with statistical significance"}, {"measurement": "concentrations exerting inhibitory effects on NLRP3-mediated IL-1β", "setting": "NLRP3 inflammasome; FIG. 2C, microglia, LPS and ATP", "result": "≥ 100", "unit": "nM"}, {"measurement": "IC50", "setting": "NLRP3 inflammasome; FIG. 3A, read-out: NLRP3 IC50", "result": "3.54 ± 1.3", "unit": "µM"}, {"measurement": "[Cx] to reach 100% of inhibition", "setting": "NLRP3 inflammasome; IL-1β release, microglia, LPS and ATP", "result": "lower than 25 μM"}, {"measurement": "IC50", "setting": "NLRP3 inflammasome; IL-1β release, microglia, LPS and ATP, nonlinear fit of dose-response, read-out: IC50", "result": "4.1 ± 2.1", "unit": "µM"}, {"measurement": "expression of caspase-1", "setting": "[3]", "result": "slightly reduced the expression of caspase-1"}, {"measurement": "mRNA levels of IL-6, IL-8, or TNF-α", "setting": "[3]", "result": "did not modify the mRNA levels"}, {"measurement": "transcriptional priming of NLRP3 or IL-1β", "setting": "[3]", "result": "did not affect the transcriptional priming"}, {"measurement": "toxicity on microglia cultures", "setting": "microglia cultures; 50 μM", "result": "significantly reduced the viability of the culture"}, {"measurement": "toxicity on microglia cultures", "setting": "microglia cultures; concentrations lower than 50 μM", "result": "did not show significant toxicity levels"}]}]}
